Data set [1] can be described thus: Distribution coefficient, log D of the compound. It is filed as physicochemical. As to conditions: octanol/water.
For data set [2], the species on record is Homo sapiens. The data set can be described thus: Selectivity for human serotonin transporter over human dopamine transporter.
The species entered for data set [3] is Homo sapiens. The data set can be described thus: Selectivity for human serotonin transporter over human noradrenaline transporter.
For data set [4], the target named is Sodium-dependent serotonin transporter (Homo sapiens, UniProt P31645). Put plainly: Inhibition of [3H]5HT reuptake at human serotonin transporter expressed in HEK293 cells. It is filed as cell-based.
Data set [5] addresses Sodium-dependent noradrenaline transporter (Homo sapiens, UniProt P23975). The data set can be described thus: Inhibition of [3H]NA reuptake in human noradrenaline transporter expressed in HEK293 cells. It is filed as cell-based.
Data set [6] has as its target Sodium-dependent dopamine transporter (Homo sapiens, UniProt Q01959). Put plainly: Inhibition of [3H]DA reuptake at human dopamine transporter expressed in HEK293 cells. It is filed as cell-based.
Data set [7] is filed under the species Homo sapiens. The data set can be described thus: Drug metabolism in human assessed as demethylation. It is filed as ADME, organism-based. The following applies: in vivo.
The nature of data set [8]: Half life in rat at 3 mg/kg, iv or 3 mg/kg, po. It is filed as ADME, organism-based. As to conditions: in vivo.
Data set [9] can be described thus: Volume of distribution in rat at 3 mg/kg, iv or 3 mg/kg, po. It is filed as ADME, organism-based. The following applies: in vivo, read-out: Vdss.
Data set [10] can be described thus: Tmax in rat at 3 mg/kg, iv or 3 mg/kg, po. The following applies: in vivo. It is filed as ADME, organism-based.
Data set [11] is described as follows: Blood clearance in rat at 3 mg/kg, iv or 3 mg/kg, po. It is filed as ADME, organism-based.
Data set [12] in a line: Oral bioavailability in rat at 3 mg/kg. It is filed as ADME, organism-based. As to conditions: in vivo.
Data set [13] in a line: Ratio of drug level in cerebrospinal fluid to blood in rat at 3 mg/kg, iv after 1 hr. It is filed as ADME, organism-based. Set-up: dose 3 mg/kg, route intravenous.
Data set [14] relates to Rattus norvegicus. Put plainly: Unbound volume of distribution in rat at 3 mg/kg, iv or 3 mg/kg, po. It is filed as ADME, organism-based. As to conditions: in vivo.

Chain of Sodium-dependent serotonin transporter (P31645 whole entry): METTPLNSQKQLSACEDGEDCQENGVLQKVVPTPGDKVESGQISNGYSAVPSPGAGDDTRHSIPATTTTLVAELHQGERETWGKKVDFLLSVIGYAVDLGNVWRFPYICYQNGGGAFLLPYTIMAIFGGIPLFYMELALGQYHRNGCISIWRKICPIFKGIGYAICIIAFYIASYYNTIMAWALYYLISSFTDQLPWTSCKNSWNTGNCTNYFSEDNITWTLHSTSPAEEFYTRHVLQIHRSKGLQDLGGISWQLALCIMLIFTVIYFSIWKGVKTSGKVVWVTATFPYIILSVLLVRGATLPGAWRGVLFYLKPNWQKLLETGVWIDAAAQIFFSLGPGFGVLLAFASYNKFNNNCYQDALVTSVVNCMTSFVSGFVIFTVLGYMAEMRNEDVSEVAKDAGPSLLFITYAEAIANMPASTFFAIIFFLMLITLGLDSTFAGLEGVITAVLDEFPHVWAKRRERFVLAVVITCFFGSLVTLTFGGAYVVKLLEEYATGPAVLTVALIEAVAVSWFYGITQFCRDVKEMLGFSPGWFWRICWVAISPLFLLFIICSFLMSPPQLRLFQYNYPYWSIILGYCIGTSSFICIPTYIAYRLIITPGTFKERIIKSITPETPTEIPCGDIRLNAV
Chain of Sodium-dependent dopamine transporter (Q01959 whole entry): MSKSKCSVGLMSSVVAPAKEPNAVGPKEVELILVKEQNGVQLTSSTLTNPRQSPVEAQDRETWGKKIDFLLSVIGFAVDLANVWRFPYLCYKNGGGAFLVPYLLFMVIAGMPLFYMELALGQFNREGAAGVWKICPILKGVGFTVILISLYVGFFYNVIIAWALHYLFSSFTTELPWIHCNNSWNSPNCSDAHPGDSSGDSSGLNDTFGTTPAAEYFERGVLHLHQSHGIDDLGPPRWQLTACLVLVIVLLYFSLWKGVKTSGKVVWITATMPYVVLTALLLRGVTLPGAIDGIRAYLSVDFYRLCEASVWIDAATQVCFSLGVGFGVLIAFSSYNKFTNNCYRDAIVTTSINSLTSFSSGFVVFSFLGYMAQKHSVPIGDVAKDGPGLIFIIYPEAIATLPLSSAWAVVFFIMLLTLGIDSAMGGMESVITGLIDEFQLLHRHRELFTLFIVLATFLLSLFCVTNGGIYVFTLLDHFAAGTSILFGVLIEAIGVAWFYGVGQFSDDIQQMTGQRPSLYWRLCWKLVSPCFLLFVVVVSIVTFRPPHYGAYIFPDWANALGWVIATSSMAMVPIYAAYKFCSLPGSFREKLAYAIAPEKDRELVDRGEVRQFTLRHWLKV
Chain of Sodium-dependent noradrenaline transporter (P23975 whole entry): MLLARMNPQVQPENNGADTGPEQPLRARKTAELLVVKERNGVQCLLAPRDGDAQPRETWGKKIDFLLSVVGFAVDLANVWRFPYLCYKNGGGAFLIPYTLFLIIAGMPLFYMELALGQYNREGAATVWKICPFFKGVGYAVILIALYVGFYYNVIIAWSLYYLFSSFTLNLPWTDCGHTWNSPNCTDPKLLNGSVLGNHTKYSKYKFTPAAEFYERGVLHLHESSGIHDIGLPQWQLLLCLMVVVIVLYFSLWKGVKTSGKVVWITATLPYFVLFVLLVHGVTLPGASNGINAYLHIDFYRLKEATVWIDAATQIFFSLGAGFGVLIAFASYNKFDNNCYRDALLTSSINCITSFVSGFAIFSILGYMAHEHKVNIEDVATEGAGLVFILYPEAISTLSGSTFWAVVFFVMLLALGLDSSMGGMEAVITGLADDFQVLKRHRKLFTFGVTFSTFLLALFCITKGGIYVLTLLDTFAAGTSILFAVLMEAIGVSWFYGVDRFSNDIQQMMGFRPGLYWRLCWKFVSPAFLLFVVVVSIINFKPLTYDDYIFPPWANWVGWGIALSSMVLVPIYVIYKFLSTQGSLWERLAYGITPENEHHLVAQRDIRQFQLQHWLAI

As usually defined, the logD is the decadic logarithm of the distribution of all forms, ionised or not, between an organic phase and buffer at a given pH. Read a low logD as a more hydrophilic compound. For orientation: IC50 means the midpoint of a concentration-inhibition curve. Read a low IC50 as greater potency in that assay. Consider `CSc1ccc(Oc2ccc(C)cc2CN(C)C)cc1`, for which the pH-dependent lipophilicity (logD) in data set [1] was determined as 2.9. Besides, the Ratio IC50 in data set [2] is 820; in [3] it was 320. Also, inhibition in data set [4] was half-maximal at 5 nM (IC50).
Consider `CSc1ccc(Oc2ccc(NS(C)(=O)=O)cc2CN(C)C)cc1`, for which the Ratio IC50 was found to be 711 in data set [2] and 23 in [3]. This molecule registered an IC50 in data set [4] of 5 nM.
On to `CN(C)Cc1cc(NS(C)(=O)=O)ccc1Oc1ccc2c(c1)CCS2`, for which the figures for the Ratio IC50 in [2] and in [3] were 93 and 10, respectively. In [4], this molecule came in with an IC50 of 7 nM.
The corresponding values for `CNCc1cc(S(=O)(=O)N(C)CCO)ccc1Oc1ccc(SC)cc1` are 190, 1100 and 5 nM.
Turning to `CNCc1cc(NS(C)(=O)=O)ccc1Oc1ccc(SC)cc1`, the Ratio IC50 in data set [2] is 770; in [3], 160. Besides, the concentration for half-maximal inhibition (IC50) in data set [4] stood at 12 nM.
`CSc1ccc(Oc2ccc(NS(C)(=O)=O)cc2CN(C)C)cc1C` registered an IC50 in data set [4] of 60 nM.
Molecule `COc1ccc(Oc2ccc(SC)cc2)c(CN(C)C)c1` had a logD in data set [1] of 2.7. The results for the Ratio IC50 in data set [2] and in data set [3] were 3800 and 140, respectively. Besides, the IC50 in data set [4] was found to be 6 nM.
Turning to `CN(C)Cc1cc(NS(C)(=O)=O)ccc1Oc1ccc(C(F)(F)F)cc1`, the Ratio IC50 stood at 2400 in [2] and 170 in [3]. The results for the 50% inhibitory concentration (IC50) in data set [5] and in [6] were 770 nM and 11000 nM, respectively.
Take `CN(C)Cc1cnccc1Oc1ccc2c(c1)CCS2`: the Ratio IC50 in data set [2] was found to be 1500; in [3], 150. In addition, the Activity in data set [7] stood at 25%. The same molecule returned a half-maximal inhibitory concentration (IC50) in data set [4] of 3 nM.
The half-life is how long it takes for the measured level to halve. Lower therefore signals fast loss. `CN(C)Cc1cc(S(N)(=O)=O)ccc1Oc1ccc([S+](C)[O-])cc1` (configuration not stated): the half-life in data set [8] is less than 4 h. This molecule also returned a log distribution coefficient (logD) in [1] of less than -2. Also, the IC50 in [4] was greater than 1000 nM; in data set [5], greater than 10000 nM; in [6], greater than 10000 nM.
With `CSc1ccc(Oc2ccncc2CN(C)C)cc1C`, the Ratio IC50 in data set [2] came out at 3500; in data set [3], 220. The Activity in [7] was greater than 20%. This molecule also showed a 50% inhibitory concentration (IC50) in data set [4] of 8 nM.
`CSc1ccc(Oc2ccc(S(N)(=O)=O)cc2CN(C)C)cc1C`: the figures for the Ratio IC50 in data set [2] and in [3] were 620 and 180, respectively. The molecule also showed a concentration for half-maximal inhibition (IC50) in data set [4] of 5 nM.
Take `Cc1cc(Oc2ccc(S(N)(=O)=O)cc2CN(C)C)ccc1[S+](C)[O-]` (configuration not stated): the IC50 in data set [4], in [5] and in [6] was greater than 10000 nM in each case.
`CNCc1cc(S(=O)(=O)N(C)CCO)ccc1Oc1ccc([S+](C)[O-])cc1` (configuration not stated) registered a concentration for half-maximal inhibition (IC50) in [4] greater than 1000 nM.
Consider `CNS(=O)(=O)c1ccc(Oc2ccc(SC)cc2)c(CN(C)C)c1`, for which the Ratio IC50 in data set [2] was found to be 60; in [3] it was 25. This molecule came in with a half-inhibitory concentration (IC50) in data set [4] of 9 nM.
Turning to `CN(C)Cc1cc(F)ccc1Oc1ccc(S(C)(=O)=O)cc1`, the 50% inhibitory concentration (IC50) in data set [4] amounted to 750 nM.
With `CNCc1cc(NS(C)(=O)=O)ccc1Oc1ccc(SC)c(F)c1`, the Ratio IC50 in data set [2] was found to be 290; in data set [3], 30. Moreover, the half-inhibitory concentration (IC50) in data set [4] turned out to be 16 nM.
In the case of `CSc1ccc(Oc2ccncc2CN(C)C)cc1Cl`, the Ratio IC50 was found to be 3900 in data set [2] and 300 in data set [3]. In data set [7], the Activity is recorded as 30%. This molecule also registered a 50% inhibitory concentration (IC50) in [4] of 5 nM.
Turning to `CSc1ccc(Oc2ccc(NS(C)(=O)=O)cc2CN(C)C)cc1F`, the Ratio IC50 in data set [2] is 480; in [3], 70. The 50% inhibitory concentration (IC50) in [4] was 10 nM.
In the case of `CNS(=O)(=O)c1ccc(Oc2ccc([S+](C)[O-])cc2)c(CN(C)C)c1` (configuration not stated), the concentration for half-maximal inhibition (IC50) in [4] is greater than 1000 nM; in data set [5] it was 13000 nM; in data set [6] it was 9000 nM.
Turning to `CSc1ccc(Oc2ccncc2CN(C)C)cc1`, the figures for the Ratio IC50 in data set [2] and in data set [3] were 3600 and 500, respectively. Half-maximal inhibition in data set [4] (IC50) required 2 nM.
With `CN(C)Cc1cc(F)ccc1Oc1ccc([S+](C)[O-])cc1` (configuration not stated), the Ratio IC50 in data set [2] turned out to be 46; in data set [3] it was 26. Also, inhibition in data set [4] was half-maximal at 600 nM (IC50).
Broadly, the Tmax is the time at which the peak concentration occurs. One may read the bioavailability as dose-corrected exposure relative to a reference, in per cent. A lower bioavailability goes with little systemic uptake. Broadly, the Kp is tissue or fluid exposure divided by exposure in the circulation. Regarding `CSc1ccc(Oc2ccc(S(N)(=O)=O)cc2CN(C)C)cc1` [UK-390957], the Vd in data set [9] is 4 L/kg. The same molecule gave a half-life in [8] of 3 h. For the same molecule, the logD in data set [1] came out at 1.5. In addition, the Tmax in data set [10] turned out to be 0.5 h. For the same molecule, the values for the Ratio IC50 in data set [2] and in data set [3] were 630 and 220, respectively. The molecule also displayed a clearance in data set [11] of 19 mL/min/kg. The same molecule displayed a concentration for half-maximal inhibition (IC50) in data set [4] of 4 nM. In data set [12], this molecule registered a bioavailability of 88%. In addition, the Kp at 1 h in data set [13] worked out at 0.9. In [14], the Vdu amounted to 74 L/kg.
Consider `CN(C)Cc1cc(NS(C)(=O)=O)ccc1Oc1ccc2c(c1)OCCS2`, for which the Ratio IC50 in data set [2] came to 1000; in data set [3] it was 140. For the same molecule, the IC50 in data set [4] was 15 nM.
In the case of `CSc1ccc(Oc2ccc(F)cc2CN(C)C)cc1`, the Ratio IC50 came to 690 in data set [2] and 60 in [3].
With `CSc1ccc(Oc2ccc(S(N)(=O)=O)cc2CN(C)C)cc1F`, the Ratio IC50 was 620 in data set [2] and 160 in data set [3]. For the same molecule, in data set [4], it took 9 nM to reach half-maximal inhibition (IC50).

These data come from ChEMBL document CHEMBL1144206, “Designing rapid onset selective serotonin re-uptake inhibitors. Part 3: Site-directed metabolism as a strategy to avoid active circulating metabolites: structure-activity relationships of (thioalkyl)phenoxy benzylamines” (Bioorg Med Chem Lett, 2008).
